The values below come from patent EP4624465A1, “COMPOUND SERVING AS DDR1 KINASE INHIBITOR, AND MEDICINE” (Nippon Shinyaku Co., Ltd., priority 2022, dated 2024).

For the assay, the target named is DDR1 kinase (Homo sapiens, UniProt Q08345). The experiment in a line: Evaluation of DDR1 kinase inhibition (LANCE Ultra TR-FRET kinase assay). The assay is classed as biochemical. Set-up: purchased Carna Biosciences 08-113. The note with it: DDR1 protein 0.5 nM, LANCE Ultra ULight-poly GAT substrate, 2 hours at room temperature, duplicate; read-out: DDR-1 IC50. (In general: Time-resolved FRET reads energy transfer from a long-lived donor to a nearby acceptor.)
Chain of DDR1 kinase (Q08345 19-876 isoform Q08345-2 limits assumed): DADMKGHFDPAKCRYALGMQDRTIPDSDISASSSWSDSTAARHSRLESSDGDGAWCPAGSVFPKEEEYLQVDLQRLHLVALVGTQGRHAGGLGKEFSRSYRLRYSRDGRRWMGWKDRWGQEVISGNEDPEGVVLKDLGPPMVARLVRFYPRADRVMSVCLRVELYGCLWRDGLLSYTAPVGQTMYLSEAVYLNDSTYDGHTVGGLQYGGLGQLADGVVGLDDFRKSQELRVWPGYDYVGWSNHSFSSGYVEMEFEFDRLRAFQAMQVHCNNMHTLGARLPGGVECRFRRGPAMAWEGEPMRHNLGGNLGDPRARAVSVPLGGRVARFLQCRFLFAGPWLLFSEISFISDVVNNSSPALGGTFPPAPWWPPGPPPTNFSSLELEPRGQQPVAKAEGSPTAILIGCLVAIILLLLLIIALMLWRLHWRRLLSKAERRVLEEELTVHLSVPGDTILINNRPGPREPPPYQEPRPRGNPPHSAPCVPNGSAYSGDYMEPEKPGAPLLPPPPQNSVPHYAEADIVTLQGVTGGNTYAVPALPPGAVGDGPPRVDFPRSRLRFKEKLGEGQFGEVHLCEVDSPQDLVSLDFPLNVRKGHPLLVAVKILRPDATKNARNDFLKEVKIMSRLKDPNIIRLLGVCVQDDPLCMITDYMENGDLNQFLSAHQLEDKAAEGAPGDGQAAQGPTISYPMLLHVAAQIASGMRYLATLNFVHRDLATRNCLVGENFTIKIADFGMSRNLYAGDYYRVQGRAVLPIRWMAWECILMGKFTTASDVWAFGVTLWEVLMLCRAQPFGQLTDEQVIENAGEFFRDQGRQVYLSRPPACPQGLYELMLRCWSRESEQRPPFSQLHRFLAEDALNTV

A word on the IC50: it is the concentration needed to halve the response being measured. For the compound `Nc1cc(C(=O)N2CCC(c3nn(CC(=O)N4CCC[C@H]4C(F)(F)F)c4ccccc34)CC2)c(F)cn1` [Compound E-49, 2-{3-[1-(2-amino-5-fluoropyridine-4-carbonyl)piperidin-4-yl]-1H-indazol-1-yl}-1-[(2S)-2-(trifluoromethyl)pyrrolidin-1-yl]ethan-1-one], the IC50 was found to be 9.9 nM. With `Cc1noc(Cn2nc(C3CN(C(=O)c4ccnc(N)c4)C3)c3c(F)cccc32)n1` [Compound E-109, 4-(3-{4-fluoro-1-[(3-methyl-1,2,4-oxadiazol-5-yl)methyl]-1H-indazol-3-yl}azetidine-1-carbonyl)pyridin-2-amine] the figure was 210 nM; with `Nc1cc(C(=O)N2CC(c3nn(CC(=O)N4CCO[C@@H](C(F)(F)F)C4)c4ccccc34)C2)c(F)cn1` [Compound E-192, 2-{3-[1-(2-amino-5-fluoropyridine-4-carbonyl)azetidin-3-yl]-1H-indazol-1-yl}-1-[(2R)-2-(trifluoromethyl)morpholin-4-yl]ethan-1-one], 1.3 nM. Then `Nc1cc(C(=O)N2CC(c3nn(CC(=O)NC4CC5CCC4C5)c4cccc(F)c34)C2)ccn1` (centres unmarked) [Compound E-238, 2-{3-[1-(2-aminopyridine-4-carbonyl)azetidin-3-yl]-4-fluoro-1H-indazol-1-yl}-N-{bicyclo[2.2.1]heptan-2-yl}acetamide], with 5.6 nM; and `Cc1ccc2c(c1)c(C1CN(C(=O)c3ccnc(N)n3)C1)nn2CC(=O)N1CCC[C@H]1C(F)(F)F` [Compound E-292, 2-{3-[1-(2-aminopyrimidine-4-carbonyl)azetidin-3-yl]-5-methyl-1H-indazol-1-yl]-1-[(2S)-2-(trifluoromethyl)pyrrolidin-1-yl]ethan-1-one], with 2.3 nM; and `CN(CC(F)(F)F)C(=O)Cn1nc(C2(C)CN(C(=O)c3ccnc(N)c3)C2)c2ccccc21` [Compound E-273, 2-{3-[1-(2-aminopyridine-4-carbonyl)-3-methylazetidin-3-yl]-1H-indazol-1-yl}-N-methyl-N-(2,2,2-trifluoroethyl)acetamide], with 60 nM. Take `Nc1cc(C(=O)N2CC(c3nn(CC(=O)N4CCC[C@H]4C(F)(F)F)c4cc(F)cc(F)c34)C2)c(F)cn1` [Compound E-155]: the IC50 amounted to 2.4 nM. On to `O=C(c1cn[nH]c1C(F)(F)F)N1CC(c2nn(CC(=O)N3CCC[C@H]3C(F)(F)F)c3cc(F)cc(F)c23)C1` [Compound E-166, 2-(4,6-difluoro-3-{1-[5-(trifluoromethyl)-1H-pyrazole-4-carbonyl]azetidin-3-yl}-1H-indazol-1-yl)-1-[(2S)-2-(trifluoromethyl)pyrrolidin-1-yl]ethan-1-one], for which the IC50 was found to be 150 nM.

Consider `Nc1cc(C(=O)N2CC(F)(c3nn(CC(=O)N4CCC[C@H]4C(F)(F)F)c4ccccc34)C2)c(F)cn1` [Compound E-285, 2-(3-[1-(2-amino-5-fluoropyridine-4-carbonyl)-3-fluoroazetidin-3-yl]-1H-indazol-1-yl}-1-[(2S)-2-(trifluoromethyl)pyrrolidin-1-yl]ethan-1-one], for which the IC50 was determined as 1.3 nM. With `C[C@@H]1CCC[C@H](C)N1C(=O)Cn1nc(C2CN(C(=O)c3cc(N)ncc3F)C2)c2ccccc21` [Compound E-266, 2·{3-[1-(2-amino-5-fluoropyridine-4-carbonyl)azetidin-3-yl]-1H-indazol-1-yl}-1-[(2R,68)-2,6-dimethylpiperidin-1-yl]ethan-1-one] the figure was 4.5 nM; with `CCN(CC(F)(F)F)C(=O)Cn1nc(C2CN(C(=O)c3cc(N)ncc3F)C2)c2ccccc21` [Compound E-249, 2-{3-[1-(2-amino-5-fluoropyridine-4-carbonyl)azetidin-3-yl]-1H-indazol-1-yl}-N-ethyl-N-(2,2,2-trifluoroethyl)acetamide], 3.5 nM. With `CC1(C)CN(C(=O)Cn2nc(C3CN(C(=O)c4cc(N)ncc4F)C3)c3c(F)cc(F)cc32)CCO1` [Compound E-176, 2-{3-[1-(2-amino-5-fluoropyridine-4-carbonyl)azetidin-3-yl)-4,6-difluoro-1H-indazol-1-yl}-1-(2,2-dimethylmorpholin-4-yl)ethan-1-one] the figure was 8.4 nM; with `Nc1cc(C(=O)N2CC(c3nn(Cc4noc(-c5cccc(C(F)(F)F)c5)n4)c4cccc(F)c34)C2)ccn1` [Compound E-117, 4-{3-[4-fluoro-1-({5-[3-(trifluoromethyl)phenyl])-1,2,4-oxadiazol-3-ylimethyl)-1H-indazol-3-yl]azetidine-1-carbonyl}pyridin-2-amine], 56 nM. With `Cc1nc(N)sc1C(=O)N1CC(c2nn(CC(=O)N3CCC[C@H]3C(F)(F)F)c3cccnc23)C1` [Compound E-122], the IC50 amounted to 140 nM.

`Nc1nccc(C(=O)N2CC(c3nn(CC(=O)N4CCC[C@H]4C(F)(F)F)c4cc(F)ccc34)C2)n1` [Compound E-286, 2-{3-[1-(2-aminopyrimidine-4-carbonyl)azetidin-3-yl]-6-fluoro-1H-indazol-1-yl}-1-[(2S)-2-(trifluoromethyl)pyrrolidin-1-yl]ethan-1-one]: the IC50 stood at 5 nM.

With `Nc1cc(C(=O)N2CC(c3nn(Cc4noc(C5(C(F)(F)F)CC5)n4)c4cncc(F)c34)C2)ccn1` [Compound E-14, 4-{3-[4-fluoro-1-({5-[1-(trifluoromethyl)cyclopropyl]-1,2,4-oxadiazol-3-yl)methyl)-1H-pyrazolo[3,4-c]pyridin-3-yl]azetidine-1-carbonyl}pyridin-2-amine], the IC50 turned out to be 5.1 nM.

Take `Cc1nc(N)sc1C(=O)N1CC(c2nn(CC(=O)N3CCO[C@@H](C(F)(F)F)C3)c3cc(F)cc(F)c23)C1` [Compound E-173, 2-(3-[1-(2-amino-4-methyl-1,3-thiazole-5-carbonyl)azetidin-3-yl]-4,6-difluoro-1H-indazol-1-yl}-1-[(2R)-2-(trifluoromethyl)morpholin-4-yl]ethan-1-one]: the IC50 amounted to 70 nM. Then `Cc1ccc(-c2nc(Cn3nc(C4CN(C(=O)c5ccnc(N)c5)C4)c4c(F)cccc43)no2)nn1` [Compound E-154, 4-[3-(4-fluoro-1-{[5-(6-methylpyridazin-3-yl)-1,2.4-oxadiazol-3-yl}methyl}-1H-indazol-3-yl)azetidine-1-carbony1]pyridin-2-amine], with 270 nM; and `Nc1cc(C(=O)N2CC(c3nn(CC(=O)NCC(F)(F)F)c4cccc(Cl)c34)C2)ccn1` [Compound E-62, 2-{3-[1-(2-aminopyridine-4-carbonyl)azetidin-3-yl}-4-chloro-1H-indazol-1-yl}-N-(2,2,2-trifluoroethyl)acetamide], with 9.3 nM. On to `Nc1cc(C(=O)N2CC(c3nn(Cc4nnc(C(F)(F)F)o4)c4cccc(F)c34)C2)ccn1` [Compound E-128, 4-[3-(4-fluoro-1-{[5-(trifluoromethyl)-1,3,4-oxadiazol-2-yl]methyl}-1H-indazol-3-yl)azetidine-1-carbonyl}pyridin-2-amine], for which the IC50 is 180 nM. Then `COc1ccc2c(c1)c(C1CN(C(=O)c3cc(N)ncc3F)C1)nn2CC(=O)N1CCC[C@H]1C(F)(F)F` [Compound E-291, 2-(3-(1-(2-amino-5-fluoropyridine-4-carbonyl)azetidin-3-yl]-5-methoxy-1H-indazol-1-yl}·1-[(2S)-2-(trifluoromethyl)pyrrolidin-1-yl]ethan-1-one], with 2.6 nM.

On to `Nc1cc(C(=O)N2CC(c3nn(Cc4noc(C(F)(F)F)n4)c4cccc(F)c34)C2)ccn1` [Compound E-216, 4-[3-(4-fluoro-1-([5-(trifluoromethyl)-1,2,4-oxadiazol-3-yl]methyl)-1H-indazol-3-yl)azetidine-1-carbonyl]pyridin-2-amine], for which the IC50 amounted to 13 nM. Then `Nc1cc(C(=O)N2CC(c3nn(CC(=O)N4CCC[C@H]4COC(F)(F)F)c4cncc(F)c34)C2)c(F)cn1` [Compound E-58, 2-{3-[1-(2-amino-5-fluoropyridine-4-carbonyl)azetidin-3-yl]-4-fluoro-1H-pyrazolo(3,4-c]pyridin-1-yl}-1-[(2S)-2-[(trifluoromethoxy)methyl]pyrrolidin-1-yl]ethan-1-one di-p-toluenesulfonate], with 4.4 nM. As to `CN(CC(F)(F)F)C(=O)Cn1nc(C2CN(C(=O)c3ccnc(N)n3)C2)c2ccc(F)cc21` [Compound E-284, 2-{3-[1-(2-aminopyrimidine-4-carbonyl)azetidin-3-yl]-6-fluoro-1H-indazol-1-yl}-N-methyl-N-(2,2,2-trifluoroethyl)acetamide], the IC50 came out at 54 nM. Then `O=C(c1ccc2[nH]ncc2c1)N1CC(c2nn(CC(=O)N3CCC[C@H]3C(F)(F)F)c3cc(F)cc(F)c23)C1` [Compound E-140, 2-{4,6-difluoro-3-[1-(1H-indazole-5-carbonyl)azetidin-3-yl]-1H-indazol-1-yl}-1-[(28)-2-(trifluoromethyl)pyrrolidin-1-yl]ethan-1-one], with 0.8 nM; and `Nc1cc(C(=O)N2CC(c3nn(CC(=O)N4CCC[C@@H]4C(F)(F)F)c4ccccc34)C2)c(F)cn1` [Compound E-60, 2-{3-[1-(2-amino-5-fluoropyridine-4-carbonyl)azetidin-3-yl]-1H-indazol-1-yl}-1-[(2R)-2-(trifluoromethyl)pyrrolidin-1-yl]ethan-1-one], with 6.5 nM; and `Nc1cc(C(=O)N2CC(c3nn(Cc4ccc(C(F)(F)F)cc4)c4cncc(F)c34)C2)ccn1` [Compound E-151, 4-[3-(4-fluoro-1-{[4-(trifluromethyl)phenyl]methyl}-1H-pyrazolo[3,4-c]pyridin-3-yl)azetidine-1-carbonyl]pyridin-2-amine], with 160 nM. Take `Nc1cc(C(=O)N2CC(c3nn(Cc4nnc(-c5ccc(F)cc5)o4)c4cccc(F)c34)C2)ccn1` [Compound E-20, 4-[3-(4-fluoro-1-{[5-(4-fluorophenyl)-1,3,4-oxadiazol-2-yl]methyl}-1H-indazol-3-yl)azetidine-1-carbonyl]pyridin-2-amine]: the IC50 is 84 nM. Then `Nc1cc(C(=O)N2CC(c3nn(CC(=O)N4CCC[C@H]4C(F)(F)F)c4cc(F)c(F)cc34)C2)c(F)cn1` [Compound E-280], with 0.9 nM.
